Experimental data: patent publication US10760087B2, “Compositions, methods, and plant genes for the improved production of fermentable sugars for biofuel production” (priority 2012, dated 2020)
Read-outs that look alike come from different tables or passages of the source.

Tests used:
Assay type in all cases: in vivo
[1] = system: wild type Arabidopsis seedlings; assay: Sugar release by 0.2 M H2SO4 acid hydrolysis of NPA-treated Arabidopsis seedlings; conditions: wild type (Col-0) 28 day-old seedlings on MS media with 1 or 5 μM NPA
From the text: FIGS. 4A-4D illustrate the analysis of pin-shaped inflorescence mutants and NPA treatment, resulting in increased saccharification in Arabidopsis and maize. […] (Results are averages ±s.d. (n=4). *, P<0.001 and **, P<0.005 using Student's t-test; all experiments were repeated two times with similar results.)
(§1) The connection between auxin transport and increased sugar release was further probed using a specific inhibitor of auxin transport N-1-naphthylphthalamic acid (NPA). […] More importantly, the ability to chemically perturb auxin transport allowed the expansion of the analysis to Zea mays (maize). […] Moreover, it appears that genes and processes identified using Arabidopsis can be transferred to maize and potentially other monocot species dedicated to biofuel production.
The M2 generation of EMS-mutagenized Arabidopsis (Col-0) seeds were chilled for 4 days and sowed onto 0.5× MS plates placed vertically under continuous light conditions at room temperature. […] The samples were incubated at 100° C. for 5 minutes, cooled and the absorbance was read at 660 nm. Approximately 22,000 seedlings from 32 pools were screened from which 63 wall hydrolysis sensitive (whs) mutants were identified as having an absorbance reading greater than 2 standard deviations from wild type (FIG. 5). whs mutants were retested in the M3 generation.

Zea mays (maize) = assay: Sugar release by 0.2 M H2SO4 acid hydrolysis of NPA-treated maize; conditions: two maize cultivars, 120 μM NPA for 2 weeks
From the text: (Results are averages ±s.d. (n=6-9).)
as §1
Polar auxin transport inhibition was carried out as described by Wu & McSteen, 2007. The two maize cultivars, Syngenta hybrid N39-Q1 and Tuxedo Sweet Corn, were grown in a greenhouse at 24° C. with a 12 hour day/night cycle. The plants were grown four weeks before NPA treatment followed by a two week watering regime using 120 μM NPA (ChemService, West Chester, Pa., USA) or DMSO alone (solvent) applied every two days in a volume of 150 mL for each pot. Plants were fertilized once a week with 20-20-20 fertilizer. After 2 weeks of treatment, whole plants were collected and de-stained in chloroform:methanol (1:1 v/v). Acid hydrolysis was performed as described previously.

[2] = system: Arabidopsis wild-type and CesA1/CesA3/CesA6 mutant alleles; assay: Root length of Arabidopsis wild-type and CESA mutant lines on cellulose biosynthetic inhibitors (CBI resistance); conditions: Arabidopsis thaliana
Protocol: Further genetic screens aimed at identifying resistance to cellulose biosynthetic inhibitors (CBIs) were also conducted. The aim of conducting resistance screens can be to identify potential inhibitor targets. In the case of some CBIs, like isoxaben, resistance screens have been carried out using high concentrations of the inhibitor with the aim of identifying the target protein. Indeed, high resistance to isoxaben is only possible if certain CELLULOSE SYNTHASE (CESA) genes are altered by mutation. An unforeseen consequence of some of the resistance alleles has been to reduce overall cellulose crystallinity, which ultimately leads to overall improved saccharification of starting cell wall material. With this information as a starting point, the inventors sought to identify novel CESA alleles by conducting additional resistance screens, but utilizing much lower CBI concentrations than in the original screens.
EMS mutagenized plants (M2) were screened on 20 nM of two different CBIs, isoxaben or flupoxam. […] In total, 2 million M2 seeds were screened and 12 new CESA alleles were isolated, 3 in CESA1, 8 in CESA3 and 1 in CESA6. All of the new mutant alleles led to single amino acid substitutions, which could not have been predicted a priori.

O=C(O)c1ccccc1C(=O)Nc1cccc2ccccc12 [NPA, N-1-naphthylphthalamic acid]
increase in the release of sugars relative to untreated plants [1]: 1.5 to 2 fold | cell wall accessibility (sugar release) (Zea mays (maize)): significant increase in cell wall accessibility

CCC(C)(CC)c1cc(NC(=O)c2c(OC)cccc2OC)on1 [Isoxaben, isoxaben]
IC50 ([2]; read-out: Concentration at which root length is 50% of wt, allele ixr1-1 (published), Col-0, CesA3 G(998)D): > 1000 nM | IC50 ([2]; read-out: Concentration at which root length is 50% of wt, allele ixr1-2 (published), Col-0, CesA3 T(942)I): 500 nM | IC50 ([2]; read-out: Concentration at which root length is 50% of wt, allele ixr1-3, Ler, CesA3 G(998)S): 100 nM | IC50 ([2]; read-out: Concentration at which root length is 50% of wt, allele ixr1-4, Ler, CesA3 R(806)K): 50 nM | IC50 ([2]; read-out: Concentration at which root length is 50% of wt, allele ixr1-5, Ler, CesA3 L(797)F): 10 nM | IC50 ([2]; read-out: Concentration at which root length is 50% of wt, allele ixr1-6, Ler, CesA3 S(377)F): 50 nM | IC50 ([2]; read-out: Concentration at which root length is 50% of wt, allele ixr1-7, Ler, CesA3 R(276)H): 50 nM | IC50 ([2]; read-out: Concentration at which root length is 50% of wt, allele ixr 2-1 (published), Col-0, CesA6 R(1064)W): 50 nM | IC50 ([2]; read-out: Concentration at which root length is 50% of wt, allele ixr 2-2, Ler, CesA6 S(1002)F): 10 nM

NC(=O)c1nc(-c2ccccc2)n(-c2ccc(Cl)c(COCC(F)(F)C(F)(F)F)c2)n1 [Flupoxam, flupoxam]
IC50 ([2]; read-out: Concentration at which root length is 50% of wt, allele fpx 1-1, Col-o, CesA3 S(1040)L): 500 nM | IC50 ([2]; read-out: Concentration at which root length is 50% of wt, allele fpx 1-2, Ler, CesA3 S(1037)F): > 1000 nM | IC50 ([2]; read-out: Concentration at which root length is 50% of wt, allele fpx 1-3, Ler, CesA3 S(983)F): 100 nM | IC50 ([2]; read-out: Concentration at which root length is 50% of wt, allele fpx2-1, Ler, CesA1 G(1013)R): > 1000 nM | IC50 ([2]; read-out: Concentration at which root length is 50% of wt, allele fpx 2-2, Ler, CesA1 P(1010)L): 100 to 500 nM | IC50 ([2]; read-out: Concentration at which root length is 50% of wt, allele fpx 2-3, Ler, CesA1 G(1009)D): 1000 nM
